Assay results taken from patent EP0468441A1, “Use of particular compounds for manufacture of pharmaceutical formulations for metabolic treatments” (Prendergast, Patrick Thomas, priority 1990, dated 1992).

What was measured:
HIV-RF = assay: In-vitro anti-viral test on C81-66 cells infected with HIV-RF (wells positive for HIV p24); assay type: cell-based; conditions: no pretreatment, number of wells positive for HIV p24 out of two replicates
Source text: NOTE: • 1. The results are expressed as the number of wells positive for HIV p24 (out of the two replicates at each multiplicity of infection). Thus, 2 means that both wells contained viral antigen, while 0 means no virus was present. • 2. Pretreatment means that the antibodies to Human Alpha feto protein were present during HIV virus absorption as well as afterwards. • 3. An error in diluting the antibodies was made, so that following the first three concentrations (6,2, and 0.6 percent), an extra 10 fold dilution was made, so that the next dilution was 0.02% rather than 0.2%.

HIV gp120 peptide = target: T1, HIV gp120 peptide (Human immunodeficiency virus type 1 group M subtype B, UniProt P04578); assay: Binding of 3H arachidonic acid (C20:4) to peptide, free ligand removed with Lipidex 1000
T1 construct: Peptide gp120, 1 mg in 180 µl of an aqueous solution of acetic acid and 20 µl acetonitrile
Procedure: (§1) Solubilisation of the peptides: • : Peptide gp120, 1 mg in 180 µl of an aqueous solution of acetic acid and 20 µl acetonitrile • : Peptide p24, 1 mg in 200 µl of an aqueous solution of acetic acid
(§2) Incubation of 50 […] or 100 µg of each peptide or 10 µg of pure rat Alpha Feto Protein with 270.000 DPM ^3H C20:4 (SA 198 Ci/mmol), overnight at 4° C, in 0.5 ml of 10 mM potassium phosphate buffer 10mM pH 7.4.
(§3) Binding of Arachidonic Acid to peptides or protein measured after separation of the free ligand from the bound one using Lipidex 1000 (100 µl Lipidex solution 10 minutes at 4°C. The free ligand is bound to Lipidex 1000, the bound ligand to peptides and proteins remains in the supernatant after centrifugation.

HIV p24 peptide = target: T2, HIV p24 peptide (Human immunodeficiency virus type 1 group M subtype B, UniProt P04591); assay: as above; conditions: 270.000 DPM 3H C20:4, overnight at 4° C, 10 mM potassium phosphate buffer pH 7.4
T2 construct: Peptide p24, 1 mg in 200 µl of an aqueous solution of acetic acid
Procedure: as §1, §2, §3

[1] = target: T3, pure rat Alpha Feto Protein (Rattus norvegicus, UniProt P02773); assay: Binding of 3H arachidonic acid (C20:4) to protein, free ligand removed with Lipidex 1000; conditions: 10 µg pure rat AFP; 270.000 DPM 3H C20:4, overnight at 4° C, 10 mM potassium phosphate buffer pH 7.4
T3 sequence (P02773 25-611): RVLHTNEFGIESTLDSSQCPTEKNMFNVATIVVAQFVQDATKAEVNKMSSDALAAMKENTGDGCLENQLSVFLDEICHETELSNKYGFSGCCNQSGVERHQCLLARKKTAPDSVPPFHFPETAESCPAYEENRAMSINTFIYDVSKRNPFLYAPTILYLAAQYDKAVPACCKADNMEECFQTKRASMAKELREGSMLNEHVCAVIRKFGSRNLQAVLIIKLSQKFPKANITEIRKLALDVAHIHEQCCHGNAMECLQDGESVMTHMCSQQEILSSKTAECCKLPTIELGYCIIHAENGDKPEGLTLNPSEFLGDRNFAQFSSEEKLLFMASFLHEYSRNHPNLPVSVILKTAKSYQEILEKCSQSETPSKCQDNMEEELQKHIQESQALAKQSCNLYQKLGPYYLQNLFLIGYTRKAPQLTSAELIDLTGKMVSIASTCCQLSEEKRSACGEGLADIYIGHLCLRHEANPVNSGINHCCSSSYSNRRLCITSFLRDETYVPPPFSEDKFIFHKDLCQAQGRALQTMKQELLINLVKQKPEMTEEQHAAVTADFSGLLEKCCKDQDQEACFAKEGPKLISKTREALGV
Procedure: as §2, §3

[2] = Solubility of 3H C20:4 before and after addition of peptides or protein; assay type: physicochemical
Procedure: as §2
Solubility of ^3H C20:4 tested before and after addition of peptides or protein: […]

T1 sequence (P04578 247-267): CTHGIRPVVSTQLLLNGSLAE

In the case of `Cc1cn([C@H]2C[C@H](N=[N+]=[N-])[C@@H](CO)O2)c(=O)[nH]c1=O` [AZT], the “Virus Replication at a.m.i. (log) of: -1” value (HIV-RF; 10 μM) is reported as 2, the “Virus Replication at a.m.i. (log) of: -2” value (HIV-RF; 10 μM) is reported as 1 and the “Virus Replication at a.m.i. (log) of: -3” value (HIV-RF; 10 μM) is reported as 0. The “Virus Replication at a.m.i. (log) of: -4” value (HIV-RF; 10 μM) was 0, the “Virus Replication at a.m.i. (log) of: -5” value (HIV-RF; 10 μM) was 0 and the “Virus Replication at a.m.i. (log) of: -6” value (HIV-RF; 10 μM) was 0. For the same compound, the “Virus Replication at a.m.i. (log) of: -1” value (HIV-RF; Conc. 0.01 (μM)) was 2, the “Virus Replication at a.m.i. (log) of: -2” value (HIV-RF; Conc. 0.01 (μM)) was 2 and the “Virus Replication at a.m.i. (log) of: -3” value (HIV-RF; Conc. 0.01 (μM)) was 2. The “Virus Replication at a.m.i. (log) of: -4” value (HIV-RF; Conc. 0.01 (μM)) was 2, the “Virus Replication at a.m.i. (log) of: -5” value (HIV-RF; Conc. 0.01 (μM)) was 1 and the “Virus Replication at a.m.i. (log) of: -6” value (HIV-RF; Conc. 0.01 (μM)) was 0. For the same compound, the “Virus Replication at a.m.i. (log) of: -1” value (HIV-RF; Conc. 0.1 (μM)) was 2, the “Virus Replication at a.m.i. (log) of: -2” value (HIV-RF; Conc. 0.1 (μM)) was 2 and the “Virus Replication at a.m.i. (log) of: -3” value (HIV-RF; Conc. 0.1 (μM)) was 2. For the same compound, the “Virus Replication at a.m.i. (log) of: -4” value (HIV-RF; Conc. 0.1 (μM)) was 2, the “Virus Replication at a.m.i. (log) of: -5” value (HIV-RF; Conc. 0.1 (μM)) was 0 and the “Virus Replication at a.m.i. (log) of: -6” value (HIV-RF; Conc. 0.1 (μM)) was 0. The “Virus Replication at a.m.i. (log) of: -1” value (HIV-RF; Conc. 1 (μM)) was 2, the “Virus Replication at a.m.i. (log) of: -2” value (HIV-RF; Conc. 1 (μM)) was 2 and the “Virus Replication at a.m.i. (log) of: -3” value (HIV-RF; Conc. 1 (μM)) was 2. The “Virus Replication at a.m.i. (log) of: -4” value (HIV-RF; Conc. 1 (μM)) was 1, the “Virus Replication at a.m.i. (log) of: -5” value (HIV-RF; Conc. 1 (μM)) was 2 and the “Virus Replication at a.m.i. (log) of: -6” value (HIV-RF; Conc. 1 (μM)) was 2.

For `CCCCC/C=C\C/C=C\C/C=C\C/C=C\CCCC(=O)O` [^3H C20:4, Arachidonic Acid], the “Binding of ^3H C20:4 to peptides or protein after Lipidex 1000 treatment” value (“Binding … after Lipidex 1000 treatment” below) (HIV gp120 peptide; 270.000 DPM 3H C20:4, overnight at 4° C, 10 mM potassium phosphate buffer pH 7.4) was 1.2 x 10^-6 DPM/mg, the “binding of C20:4” value (HIV gp120 peptide; conclusion in words) was “clear binding” and the “Binding … after Lipidex 1000 treatment” value (HIV p24 peptide) was 0.8 x 10^-6 DPM/mg. The “Binding … after Lipidex 1000 treatment” value [1] was 14.1 x 10^-6 DPM/mg, the “Solubility of ^3H C20:4” value ([2]; in presence of 10 µg pure rat AFP) was 100% and the “Solubility of ^3H C20:4” value ([2]; in presence of gp120: 50µg) was 65%. For the same compound, the “Solubility of ^3H C20:4” value ([2]; in presence of gp120: 100µg) was 90%, the “Solubility of ^3H C20:4” value ([2]; in presence of p24 50µg) was 23% and the “Solubility of ^3H C20:4” value ([2]; in presence of p24 100µg) was 30%. The “insolubility of the Arachidonic Acid” value ([2]; in the presence of p24 peptide, conclusion in words) was “important insolubility” and the “Solubility of ^3H C20:4” value ([2]; without peptide or protein) was 70%.
